{
  "source": "patent EP1145714A1",
  "about": "“DRUGS” (Takeda Chemical Industries, Ltd., priority 1998, dated 2000)",
  "key": {"[1]": {"system": "acute and delayed vomiting induced by cisplatin in ferrets", "assay": "Acute and delayed vomiting induced by cisplatin in ferrets, oral dosing once or twice daily", "assay_type": "in vivo", "conditions": "cisplatin 5 mg/kg i.p.; for Duration (in hour; mean ± SD) / Latency (in hour; mean ± SD) / On day 0 (0-24 hours): frequency of retching and vomiting (mean ± SD) / On day 0 (0-24 hours): number of ferrets with vomiting/ number of tested ferrets / On days 1-2(24-48 hours): frequency of retching and vomiting (mean ± SD) / On days 1-2(24-48 hours): number of ferrets with vomiting/ number of tested ferrets / Total frequency of retching and vomiting (on days 0~2; 0-72 hours): twice daily, under fasting", "experimental": "Male 4 to 6 ferrets (1.2 to 2.2 kg) per one group were used. Cisplatin was intraperitoneally given at 5 mg/5ml/kg. 30 minutes prior to cisplatin administration and 24 and 48 hours after cisplatin administration, predetermined doses of the compound No. 3 were orally given in case of dosing once daily. 30 minutes prior to cisplatin administration and 12, 24, 36, 48 and 60 hours after cisplatin administration, predetermined doses of the compound No. 3 were orally given in case of dosing twice daily. 30 minutes prior to the dosing of the compound No. 3, a small amount of a feed was given to the animals in any of the cases. Similarly, a predetermined volume of 0.5 % methyl cellulose solution was similarly given orally to a control animal group under no fasting. A predetermined dose of ondansetron was orally given to the animals under fasting. To a control animal group of ondansetron, a predetermined volume of physiological saline was orally given to the animals under fasting. The frequency of vomiting was counted in number, up to 72 hours after cisplatin administration.\nThe compound No. 3 was suspended in 0.5 % methyl cellulose solution, for oral dosing at predetermined doses at a ratio of 1 ml per 1 kg body weight. An injection of ondansetron at 0.2 w/v % concentration was orally given at a predetermined volume. Additionally, 0.5 % methyl cellulose solution was orally given at a ratio of 1 ml per 1 kg body weight, while physiological saline was orally given at a ratio of 0.5 to 1.5 ml per 1 kg body weight. The data relating to the frequency of vomiting, the time period (latency) until first vomiting and the time period from the occurrence of vomiting to the termination thereof were statistically analyzed by the Dunnett test, with reference to the difference from the control group.\nThe acute vomiting suppression ratio, delayed vomiting suppression ratio and total vomiting suppression ratio were calculated by the following formula. [Frequency of retching or vomiting in control] - [Frequency of retching or vomiting in animals dosed with compound No. 3] / [Frequency of retching or vomiting in control] x 100 (%) [formula]"}, "[2]": {"system": "vomiting induced by a central emetic agent apomorphine in dogs", "assay": "Vomiting induced by apomorphine in dogs", "assay_type": "in vivo, beagle dogs", "conditions": "10 mg/kg p.o., apomorphine 0.1 mg/kg subcutaneous", "experimental": "3 male or female beagle dogs (7.8 to 15.9 kg) per one group were used. Apomorphine was subcutaneously given at 0.1 mg/ml/kg. 2.5 hours prior to apomorphine administration, a small amount of a feed was given to the animals. 30 minutes thereafter, predetermined doses of the compound No. 3 were orally given. Similarly, 0.5 % methyl cellulose solution was orally given to a control animal group under no fasting. A predetermined dose of ondansetron was given orally to the animals under fasting. The frequency of vomiting was counted in number, up to one hour after apomorphine administration. The compound No. 3 was dissolved in 0.5 % methyl cellulose solution, for oral dosing at a ratio of 1 ml per 1 kg • body weight. An injection of ondansetron at a concentration of 0.2% w/v was orally given. Additionally, 0.5 % methyl cellulose solution was orally given at a ratio of 1 ml per 1 kg • body weight. The data relating to the frequency of vomiting, the latency and the time period from the occurrence of vomiting to the termination thereof were statistically analyzed by the Dunnett test, with reference to the difference from the control group.\nThe vomiting suppression ratio was calculated by the following formula."}},
  "data": [
    {"compound": "Cc1nccn1CC1CCc2c(c3ccccc3n2C)C1=O", "note": "(centres unmarked) [Ondansetron, ondansetron, reference compound]", "values": [
      {"measurement": "Acute vomiting suppression ratio (0 to 24 hours after cisplatin dosing)", "setting": "[1]; 1 mg/kg p.o. twice daily", "result": 0, "unit": "% NS"},
      {"measurement": "Delayed vomiting suppression ratio (24 to 72 hours after cisplatin dosing)", "setting": "[1]; 1 mg/kg p.o. twice daily", "result": 0, "unit": "% NS"},
      {"measurement": "Total vomiting suppression ratio (0 to 72 hours after cisplatin dosing)", "setting": "[1]; 1 mg/kg p.o. twice daily", "result": 0, "unit": "% NS"},
      {"measurement": "Duration (in hour; mean ± SD)", "setting": "[1]; 1 mg/kg × 2 p.o.", "result": "56.5 ± 2.6", "unit": "h"},
      {"measurement": "Latency (in hour; mean ± SD)", "setting": "[1]; 1 mg/kg × 2 p.o.", "result": "8.7 ± 0.9", "unit": "h"},
      {"measurement": "On day 0 (0-24 hours): frequency of retching and vomiting (mean ± SD)", "setting": "[1]; 1 mg/kg × 2 p.o.", "result": "70.2 ± 25.2"},
      {"measurement": "On day 0 (0-24 hours): number of ferrets with vomiting/ number of tested ferrets", "setting": "[1]; 1 mg/kg × 2 p.o.", "result": "5/5"},
      {"measurement": "On days 1-2(24-48 hours): frequency of retching and vomiting (mean ± SD)", "setting": "[1]; 1 mg/kg × 2 p.o.", "result": "327.4 ± 88.8"},
      {"measurement": "On days 1-2(24-48 hours): number of ferrets with vomiting/ number of tested ferrets", "setting": "[1]; 1 mg/kg × 2 p.o.", "result": "5/5"},
      {"measurement": "Total frequency of retching and vomiting (on days 0~2; 0-72 hours)", "setting": "[1]; 1 mg/kg × 2 p.o.", "result": "397.6 ± 72.0"},
      {"measurement": "Acute vomiting suppression ratio (0 to 24 hours after cisplatin dosing)", "setting": "[1]; 3 mg/kg p.o. twice daily", "result": 58, "unit": "% NS"},
      {"measurement": "Delayed vomiting suppression ratio (24 to 72 hours after cisplatin dosing)", "setting": "[1]; 3 mg/kg p.o. twice daily", "result": 32, "unit": "% NS"},
      {"measurement": "Total vomiting suppression ratio (0 to 72 hours after cisplatin dosing)", "setting": "[1]; 3 mg/kg p.o. twice daily", "result": 36, "unit": "% NS"},
      {"measurement": "Duration (in hour; mean ± SD)", "setting": "[1]; 3 mg/kg × 2 p.o.", "result": "44.2 ± 8.4", "unit": "h"},
      {"measurement": "Latency (in hour; mean ± SD)", "setting": "[1]; 3 mg/kg × 2 p.o.", "result": "15.7 ± 5.6", "unit": "h"},
      {"measurement": "On day 0 (0-24 hours): frequency of retching and vomiting (mean ± SD)", "setting": "[1]; 3 mg/kg × 2 p.o.", "result": "27.8 ± 13.1"},
      {"measurement": "On day 0 (0-24 hours): number of ferrets with vomiting/ number of tested ferrets", "setting": "[1]; 3 mg/kg × 2 p.o.", "result": "4/6"},
      {"measurement": "On days 1-2(24-48 hours): frequency of retching and vomiting (mean ± SD)", "setting": "[1]; 3 mg/kg × 2 p.o.", "result": "221.7 ± 62.9"},
      {"measurement": "On days 1-2(24-48 hours): number of ferrets with vomiting/ number of tested ferrets", "setting": "[1]; 3 mg/kg × 2 p.o.", "result": "6/6"},
      {"measurement": "Total frequency of retching and vomiting (on days 0~2; 0-72 hours)", "setting": "[1]; 3 mg/kg × 2 p.o.", "result": "249.5 ± 74.2"},
      {"measurement": "Effect on vomiting (in words)", "setting": "[2]", "result": "did not suppress"},
      {"measurement": "Vomiting suppression ratio", "setting": "[2]", "result": 0, "unit": "% NS"},
      {"measurement": "B: Frequency of vomiting (mean ± SD)", "setting": "[2]; one hour", "result": "13.7 ± 2.4"},
      {"measurement": "C: Time period until first vomiting (minute; mean ± SD)", "setting": "[2]; one hour", "result": "2.4 ± 0.6", "unit": "min"},
      {"measurement": "D: Duration of vomiting (minute; mean ± SD)", "setting": "[2]; one hour", "result": "22.8 ± 3.6", "unit": "min"},
      {"measurement": "Number of dogs with vomiting/number of tested dogs", "setting": "[2]; one hour", "result": "3/3"}
    ]}
  ]
}
